Source: the CheMixHub ionic liquid set

Test: xn = mol fraction of the nth substance listed

CCCC[n+]1ccn(C)c1.F[P-](F)(F)(F)(F)F + ClC(Cl)Cl
298.15 K, 101 kPa
Details | electrical conductivity [S/m] | viscosity [mPa·s]
x2 = 0 | 0.157 | 260
x2 = 0.0857 | 0.199 | 200
x2 = 0.1741 | 0.253 | 144
x2 = 0.2614 | 0.319 | 103
x2 = 0.3625 | 0.411 | 68.4
x2 = 0.4608 | 0.519 | 43
x2 = 0.5633 | 0.644 | 25
x2 = 0.6683 | 0.726 | 13.1
x2 = 0.7326 | 0.729 | 10

CCCC[n+]1ccn(C)c1.O=S(=O)([N-]S(=O)(=O)C(F)(F)F)C(F)(F)F + ClCCl
Details | viscosity [mPa·s]
298 K, 101 kPa, x2 = 0 | 50.4

CC#N + Cn1cc[n+](CCCN)c1.F[B-](F)(F)F
101 kPa, x2 = 0
Details | viscosity [mPa·s]
288.15 K | 0.439
293.15 K | 0.403
298.15 K | 0.371
303.15 K | 0.345
308.15 K | 0.322
313.15 K | 0.3
318.15 K | 0.282
323.15 K | 0.265

CCCC[n+]1ccn(C)c1.O=S(=O)([N-]S(=O)(=O)C(F)(F)F)C(F)(F)F + N
Details | viscosity [mPa·s]
313.2 K, 101 kPa, x1 = 1 | 27.3

CCCC[n+]1ccn(C)c1.F[P-](F)(F)(F)(F)F + NCCO
101 kPa
Details | electrical conductivity [S/m] | viscosity [mPa·s]
288.15 K, x2 = 0.8022 | 0.1847 | 45
288.15 K, x2 = 0.9028 | 0.1368 | 36
293.15 K, x2 = 0.3052 | 0.222 | 103
293.15 K, x2 = 0.387 | 0.236 | –
293.15 K, x2 = 0.5871 | 0.268 | –
293.15 K, x2 = 0.9592 | 0.1028 | –
298.15 K, x2 = 0 | 0.1851 | 182
298.15 K, x2 = 0.2113 | 0.256 | 92
298.15 K, x2 = 0.3052 | 0.292 | 76
298.15 K, x2 = 0.5352 | 0.337 | –
298.15 K, x2 = 0.8022 | 0.313 | 26
303.15 K, x2 = 0.6984 | 0.434 | 26
308.15 K, x2 = 0.387 | 0.506 | –
308.15 K, x2 = 0.4282 | 0.511 | 35
308.15 K, x2 = 0.4761 | 0.541 | –
313.15 K, x2 = 0.3052 | 0.602 | 35
313.15 K, x2 = 0.4761 | 0.669 | –
313.15 K, x2 = 0.5352 | 0.679 | –
313.15 K, x2 = 0.9592 | 0.25 | –
318.15 K, x2 = 0.3052 | 0.733 | 28
318.15 K, x2 = 0.4282 | 0.773 | 22.1
318.15 K, x2 = 0.4918 | 0.796 | 19.5
323.15 K, x2 = 0 | 0.504 | 48
323.15 K, x2 = 0.3052 | 0.875 | 23.1
323.15 K, x2 = 0.4761 | 0.967 | –
323.15 K, x2 = 0.5352 | 0.977 | –

CCCC[n+]1ccn(C)c1.O=S(=O)([N-]S(=O)(=O)C(F)(F)F)C(F)(F)F + Nc1ccccc1
100 kPa, x2 = 0
Details | viscosity [mPa·s]
288.15 K | 78.4
293.15 K | 61.5
298.15 K | 49.1
303.15 K | 39.9
308.15 K | 33.2
313.15 K | 27.7
318.15 K | 23.5
323.15 K | 20.13
328.15 K | 17.39
333.15 K | 15.2

CCCC[n+]1ccn(C)c1.F[P-](F)(F)(F)(F)F + O
Details | electrical conductivity [S/m] | viscosity [mPa·s]
293.15 K, 100 kPa, x1 = 0.0001838 | – | 1.011
293.15 K, 100 kPa, x1 = 0.0005385 | – | 1.025
293.15 K, 100 kPa, x1 = 0.0008966 | – | 1.038
293.15 K, 100 kPa, x1 = 0.001262 | – | 1.041
298.15 K, 100 kPa, x1 = 0.0001838 | – | 0.905
298.15 K, 100 kPa, x1 = 0.0005385 | – | 0.916
298.15 K, 100 kPa, x1 = 0.0008966 | – | 0.922
298.15 K, 100 kPa, x1 = 0.001262 | – | 0.932
298.15 K, 101 kPa, x1 = 0.00129 | – | 0.929
298.15 K, 101 kPa, x2 = 0 | 0.157 | 260
298.15 K, 101 kPa, x2 = 0.0518 | 0.197 | 200
298.15 K, 101 kPa, x2 = 0.0985 | 0.235 | 154
298.15 K, 101 kPa, x2 = 0.1409 | 0.281 | 127
298.15 K, 101 kPa, x2 = 0.1794 | 0.334 | 109
298.15 K, 101 kPa, x2 = 0.2146 | 0.383 | 92
303.15 K, 100 kPa, x1 = 0.0001838 | – | 0.821
303.15 K, 100 kPa, x1 = 0.0005385 | – | 0.826
303.15 K, 100 kPa, x1 = 0.001262 | – | 0.843
308.15 K, 100 kPa, x1 = 0.0001838 | – | 0.742
308.15 K, 100 kPa, x1 = 0.0005385 | – | 0.744
308.15 K, 100 kPa, x1 = 0.0008966 | – | 0.75
308.15 K, 100 kPa, x1 = 0.001262 | – | 0.761
313.15 K, 100 kPa, x1 = 0.0001838 | – | 0.661
313.15 K, 100 kPa, x1 = 0.0005385 | – | 0.674
313.15 K, 100 kPa, x1 = 0.0008966 | – | 0.677
313.15 K, 100 kPa, x1 = 0.001262 | – | 0.683

101 kPa, frequency 6e-05 MHz
Details | electrical conductivity [S/m]
293.2 K, x2 = 0.1 | 0.199
298.2 K, x2 = 0.05 | 0.231
298.2 K, x2 = 0.15 | 0.361
308.2 K, x2 = 0.1 | 0.401
308.2 K, x2 = 0.2 | 0.546
313.2 K, x2 = 0.15 | 0.561
318.2 K, x2 = 0.05 | 0.491
318.2 K, x2 = 0.2 | 0.775
323.2 K, x2 = 0.1 | 0.678
333.2 K, x2 = 0.2 | 1.06
343.2 K, x2 = 0.15 | 1.06
353.2 K, x2 = 0.15 | 1.405
353.2 K, x2 = 0.2 | 1.621

COCCCn1cc[n+](C)c1.O=S(=O)([N-]S(=O)(=O)C(F)(F)F)C(F)(F)F + O
Details | viscosity [mPa·s]
283 K, 101 kPa, x1 = 0.8316 | 82.6

Cn1cc[nH+]c1.[Cl-] + O
viscosity [mPa·s], 100 kPa
Details | x1 = 9.081e-05 | x1 = 0.000182 | x1 = 0.0003637 | x1 = 0.0005491 | x1 = 0.0007277 | x1 = 0.0008883 | x1 = 0.001091 | x1 = 0.001364 | x1 = 0.00178
278.15 K | 1.521 | 1.523 | 1.525 | 1.528 | 1.53 | 1.532 | 1.535 | 1.539 | 1.543
283.15 K | 1.308 | 1.309 | 1.311 | 1.313 | 1.314 | 1.316 | 1.319 | 1.32 | 1.323
288.15 K | 1.139 | 1.141 | 1.142 | 1.144 | 1.145 | 1.146 | 1.149 | 1.151 | 1.153
293.15 K | 1.003 | 1.004 | 1.005 | 1.007 | 1.009 | 1.01 | 1.013 | 1.014 | 1.018
298.15 K | 0.89 | 0.891 | 0.892 | 0.894 | 0.896 | 0.897 | 0.899 | 0.901 | 0.904
303.15 K | 0.798 | 0.799 | 0.8 | 0.801 | 0.803 | 0.804 | 0.805 | 0.806 | 0.808
308.15 K | 0.719 | 0.72 | 0.721 | 0.722 | 0.723 | 0.724 | 0.725 | 0.727 | 0.728
313.15 K | 0.652 | 0.653 | 0.654 | 0.655 | 0.656 | 0.657 | 0.658 | 0.659 | 0.662
